What was measured:
[1] = Solubility of M4N in water-soluble organic solvents (Table 20, visual inspection); type: physicochemical
Protocol: A 100 mL solution of M4N at a concentration of about 25 mg/mL in PEG 300 was made as follows. About 100 mL of PEG 300 were added to a glass beaker containing a stir bar. The beaker was placed on a magnetic plate and the stir bar was set to stir at medium speed. About 2.5 g of M4N were slowly added to the PEG 300 in the center of the beaker with the aid of a spatula to prevent M4N from sticking to the beaker wall. The M4N/PEG 300 mixture was stirred for 24 hr or until all M4N had dissolved or was uniformly suspended without any clumps being present. The M4N/PEG 300 mixture was optionally heated at about 60° C. for about 30 min. (or longer if a larger volume of solution was desired, for example, 1 hr at 60° C. for 500 mL of the M4N/PEG 300 mixture), or longer as needed to ensure complete dissolution of M4N. […] If crystals formed, the M4N/PEG 300 solution could be heated again at 60° C. for about 1 hr, with stirring, on a hot magnetic plate until all M4N was dissolved back in solution. The final M4N/PEG 300 solution was stored at room temperature and was kept protected from light. This process may be scaled up or down to obtain the requisite volume or concentration of M4N. Formulations containing M4N in other PEGs may be similarly made, such as, for example, by substituting PEG 300 in the process described above with PEG 400 or PEG 400 monolaurate.
This process may be scaled up or down to obtain the requisite volume or concentration of M4N and the heating temperature may be increased or decreased to achieve dissolution of M4N. Formulations containing M4N in other water-insoluble lipids combined with non-ionic surfactants, ionic surfactants or water-soluble organic solvents may be similarly made, such as, for example, by substituting sesame oil or Tween® 20 in the process described above with corn oil, olive oil, soybean oil, peppermint oil, Tween® 80, d-alpha-tocopheryl polyethylene glycol 1000 succinate (TPGS), lecithin, PEG 300, PEG 400, PEG 400 monolaurate, glycerol, polyvinylpyrrolidone (“PVP”), propylene glycol (“PG”), or other solubilizing agents, and combinations thereof.

healthy male subjects = experiment: Human Phase 0 microdose study: tolerability; type: in vivo; conditions: oral and intravenous administrations, 100 μg
Protocol: This study was designed to assess the absorption of M4N when administered to humans as a sub-therapeutic dose either as a single oral dose under fed and fasted conditions or a single intravenous dose (Regimens A-C, respectively, in Table 24). The study was a three-way crossover study design in a target population of healthy male subjects and consisted of three study periods of approximately 35 hours duration, each separated by a minimum period of at least 7 days between dosing. During the course of each study period, pharmacokinetic blood samples were taken at specified time points after dosing and urine was collected over pre-defined time intervals. The subjects were able to leave the clinical unit after the completion of study specific procedures at 24 hours post-dose.

With `COc1ccc(C[C@@H](C)[C@@H](C)Cc2ccc(OC)c(OC)c2)cc1OC` [Formulation M4N, meso-1,4-bis(3,4-dimethoxyphenyl)-2,3-dimethylbutane] the “Dissolution After Heating” value ([1]; 40% Propylene Glycol, 10% Ethanol, M4N 10 mg/mL, temperature not given) was “N”, the “Stability Time at Room Temperature” value ([1]; Ethanol 100%, M4N 1 mg/mL) was >3 days and the “Dissolution After Heating” value ([1]; Ethanol 100%, M4N 10 mg/mL, heating at 37° C.) was “N at 37 °C”. The “Dissolution After Heating” value ([1]; Glycerol 100%, M4N 1 mg/mL, heating at 70° C.) was “Y at 70 °C”, the “Dissolution After Heating” value ([1]; Glycerol 100%, M4N 10 mg/mL, heating at 70° C.) was “Y at 70 °C” and the “Dissolution After Heating” value ([1]; Glycerol 100%, M4N 20 mg/mL, heating at 70° C.) was “Y at 70 °C”. For the same molecule, the “Dissolution After Heating” value ([1]; PEG 300 33%, M4N 10 mg/mL, heating at 50° C.) was “N at 50 °C”, the “Stability Time at Room Temperature” value ([1]; PEG 300 100%, M4N 25 mg/mL) was <7 days and the “Dissolution After Heating” value ([1]; PEG 300 100%, M4N 25 mg/mL, heating at 50° C.) was “Y at 50 °C”. The “Stability Time at Room Temperature” value ([1]; PEG 300 100%, M4N 30 mg/mL) was <3 days, the “Dissolution After Heating” value ([1]; PEG 300 100%, M4N 30 mg/mL, heating at 50° C.) was “Y at 50 °C” and the “Stability Time at Room Temperature” value ([1]; PEG 300 100%, M4N 40 mg/mL) was <1 days. The “Dissolution After Heating” value ([1]; PEG 300 100%, M4N 40 mg/mL, heating at 50° C.) was “Y at 50 °C”, the “Stability Time at Room Temperature” value ([1]; PEG 300 100%, M4N 50 mg/mL) was <1 days and the “Dissolution After Heating” value ([1]; PEG 300 100%, M4N 50 mg/mL, heating at 60° C.) was “Y at 60 °C”. The “Dissolution After Heating” value ([1]; PEG 300 100%, M4N 100 mg/mL, heating at 60° C.) was “Y at 60 °C”, the “Dissolution After Heating” value ([1]; PEG 400 5%, M4N 10 mg/mL, heating at 50° C.) was “N at 50 °C” and the “Stability Time at Room Temperature” value ([1]; PEG 400 100%, M4N 25 mg/mL) was <7 days. For the same molecule, the “Dissolution After Heating” value ([1]; PEG 400 100%, M4N 25 mg/mL, heating at 50° C.) was “Y at 50 °C”, the “Stability Time at Room Temperature” value ([1]; PEG 400 100%, M4N 30 mg/mL) was <3 days and the “Dissolution After Heating” value ([1]; PEG 400 100%, M4N 30 mg/mL, heating at 50° C.) was “Y at 50 °C”. The “Stability Time at Room Temperature” value ([1]; PEG 400 100%, M4N 40 mg/mL) was <1 days, the “Dissolution After Heating” value ([1]; PEG 400 100%, M4N 40 mg/mL, heating at 50° C.) was “Y at 50 °C” and the “Stability Time at Room Temperature” value ([1]; PEG 400 100%, M4N 50 mg/mL) was <1 days. The “Dissolution After Heating” value ([1]; PEG 400 100%, M4N 50 mg/mL, heating at 60° C.) was “Y at 60 °C”, the “Dissolution After Heating” value ([1]; PEG 400 100%, M4N 100 mg/mL, heating at 60° C.) was “Y at 60 °C” and the “Dissolution After Heating” value ([1]; PEG 400 monolaurate 100%, M4N 20 mg/mL, heating at 50° C.) was “Y at 50 °C”. For the same molecule, the “Dissolution After Heating” value ([1]; PEG 400 monolaurate 100%, M4N 50 mg/mL, heating at 50° C.) was “Y at 50 °C”, the “Dissolution After Heating” value ([1]; PVP 15%, M4N 1 mg/mL, heating at 90° C.) was “N at 90 °C” and the “Dissolution After Heating” value ([1]; PVP 15%, M4N 10 mg/mL, heating at 90° C.) was “N at 90 °C”. For the same molecule, the “Stability Time at Room Temperature” value ([1]; Propylene Glycol 100%, M4N 1 mg/mL) was <1 days, the “Dissolution After Heating” value ([1]; Propylene Glycol 100%, M4N 1 mg/mL, heating at 55° C.) was “Y at 55 °C” and the “Stability Time at Room Temperature” value ([1]; Propylene Glycol 100%, M4N 10 mg/mL) was <1 days. The “Dissolution After Heating” value ([1]; Propylene Glycol 100%, M4N 10 mg/mL, heating at 55° C.) was “Y at 55 °C”, the “Stability Time at Room Temperature” value ([1]; Propylene Glycol 100%, M4N 20 mg/mL) was <1 days and the “Dissolution After Heating” value ([1]; Propylene Glycol 100%, M4N 20 mg/mL, heating at 55° C.) was “Y at 55 °C”. The adverse events (healthy male subjects) was “no serious or severe adverse events” and the “tolerability of study formulations” value (healthy male subjects) was “well tolerated”.

Reference: patent publication US20080096967A1, “Formulations for Injection of Catecholic Butanes, Including Ndga Compounds, Into Animals” (priority 2005, published 2008)
